A word on the EC50: it is the concentration giving half of the maximal effect. Higher therefore signals a less potent agent. The IC50 is the point on the concentration scale where inhibition reaches its midpoint.

Assay [1] is described as follows: Binding affinity to synthetic 3'-biotin-labelled pre-miR-21 RNA by ELISA. A general note: In an ELISA, binding on a coated surface is turned into a signal by an enzyme label.
Assay [2] is described as follows: Binding affinity to synthetic 3'-biotin-labelled mirrored pre-miR-21 RNA by ELISA.
A short description of assay [3]: Binding affinity to synthetic 3'-biotin-labelled pre-miR-21 RNA assessed as inhibition of human recombinant Dicer-mediated pre-miR-21 processing by measuring reduction in mature miR-21 formation pretreated for 30 mins followed by dicer addition after 2 hrs by SYBR staining based PAGE analysis.

As for `CC(C)[C@H](NC(=O)[C@H](C)NC(=O)[C@H](CCCNC(=N)N)NC(=O)[C@@H]1CSSC[C@H](NC(=O)[C@H](CCCNC(=N)N)NC(=O)CNC(=O)[C@@H]2CCCN2C(=O)CCCC[C@@H]2SC[C@@H]3NC(=O)N[C@@H]32)C(=O)N[C@@H](CCCCN)C(=O)N2CCC[C@H]2C(=O)N[C@@H](CCCCN)C(=O)N[C@@H](CCCNC(=N)N)C(=O)N[C@@H](CCCNC(=N)N)C(=O)N[C@@H](CCCNC(=N)N)C(=O)N[C@@H](CCCNC(=N)N)C(=O)N[C@@H](C)C(=O)N[C@@H]([C@@H](C)O)C(=O)N1)C(=O)O`, the EC50 came out at 7400 nM in assay [1] and 150 nM in assay [2].
Regarding `CC(C)[C@@H](NC(=O)[C@@H](C)NC(=O)[C@@H](CCCNC(=N)N)NC(=O)[C@H]1CSSC[C@@H](NC(=O)[C@@H](CCCNC(=N)N)NC(=O)CNC(=O)[C@H]2CCCN2C(=O)CCCC[C@@H]2SC[C@@H]3NC(=O)N[C@@H]32)C(=O)N[C@H](CCCCN)C(=O)N2CCC[C@@H]2C(=O)N[C@H](CCCCN)C(=O)N[C@H](CCCNC(=N)N)C(=O)N[C@H](CCCNC(=N)N)C(=O)N[C@H](CCCNC(=N)N)C(=O)N[C@H](CCCNC(=N)N)C(=O)N[C@H](C)C(=O)N[C@H]([C@H](C)O)C(=O)N1)C(=O)O`, the EC50 was 440 nM in assay [1] and 1600 nM in assay [2]. The IC50 in assay [3] stood at 540 nM.

For the origin of these results see ChEMBL document CHEMBL3997793, “Discovery of peptidic miR-21 processing inhibitor by mirror image phage display: A novel method to generate RNA binding D-peptides” (Bioorg Med Chem Lett, 2017).
